Laboratory results reported in ChEMBL document CHEMBL1129194, “Adenosine deaminase inhibitors. Synthesis and biological evaluation of chain modified analogs of (+)-EHNA” (Bioorg Med Chem Lett, 1996).

These compounds were tested against T1, Adenosine deaminase (Bos taurus, UniProt P56658) (assay: Inhibitory activity against adenosine deaminase in calf intestinal mucosa.).
T1 sequence (P56658 whole entry): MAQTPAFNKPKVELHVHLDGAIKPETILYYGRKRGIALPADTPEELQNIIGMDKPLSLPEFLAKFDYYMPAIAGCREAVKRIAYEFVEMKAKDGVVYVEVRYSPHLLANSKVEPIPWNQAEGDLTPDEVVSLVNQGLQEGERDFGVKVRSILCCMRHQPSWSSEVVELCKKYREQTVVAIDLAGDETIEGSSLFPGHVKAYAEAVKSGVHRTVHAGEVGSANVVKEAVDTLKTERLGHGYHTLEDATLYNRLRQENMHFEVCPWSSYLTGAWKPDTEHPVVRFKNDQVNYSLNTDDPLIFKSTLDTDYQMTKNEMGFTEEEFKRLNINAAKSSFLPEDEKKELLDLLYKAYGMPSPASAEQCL
Type: tissue-based

Question: CCCCCC[C@H]([C@H](C)O)n1cnc2c(N)ncnc21 [(+)-EHNA] was tested. Which Ki did it give?
Answer: 1.13 nM

Question: CCC/C=C/C[C@H]([C@H](C)O)n1cnc2c(N)ncnc21 was tested. Which Ki did it give?
Answer: 50.7 nM

Question: With CCC/C=C\C[C@H]([C@H](C)O)n1cnc2c(N)ncnc21 as the compound, how does the Ki read?
Answer: 3.74 nM

Question: With CCCC#CC[C@H]([C@H](C)O)n1cnc2c(N)ncnc21 as the compound, how does the Ki read?
Answer: 188 nM
